Source: patent publication US20260028354A1, “TETRAHYDRONAPHTHALENE DERIVATIVES AS ESTROGEN RECEPTOR DEGRADERS” (REGENT OF THE UNIVERSITY OF MICHIGAN, priority 2022, published 2026)
Where a name gives a salt, the structure may show the parent alone. Read-outs that look alike come from different tables or passages of the source. Blank lines part the entries; values can stand above or below the compound they belong to.

Experiments:
Format in all cases: cell-based
[1] = Western blot analysis for "B" compounds; conditions: read-out: Traditional Western Degradation Potency (DC50)
Protocol: Western Blot Analysis. Western blot analysis was performed essentially as described previously. The cells treated with indicated compounds were lysed in Radioimmunoprecipitation Assay Protein Lysis and Extraction Buffer (25 mmol/I. Tris.HCl, pH 7.6, 150 mmol/L, NaCl, 1% Nonidet P-40, 1% sodium deoxycholate, and 0.1% sodium dodecyl sulfate) containing proteinase inhibitor cocktail (Roche Diagnostics, Mannheim, Germany). Equal amounts of total protein were electrophoresed through 10% SDS-polyacrylamide gels after determination of protein concentration by BCA assay (Fisher Scientific, Pittsburgh, PA), The separated protein bands were transferred onto PVDF membranes (GE Healthcare Life Sciences, Marlborough, MA) and blotted against different antibodies, as indicated. The blots were scanned, and the band intensities were quantified using GelQuant.NET software provided by biochemlabsolutions.com. The relative mean intensity of target proteins was expressed after normalization to the intensity of glyceraldehyde-3-phosphate dehydrogenase bands.

ER in MCF-7 cells = ER in MCF-7 cells (Homo sapiens (Human), UniProt P03372); test: In-cell Western (ICW) ER degradation assay in MCF-7 cells; conditions: for DC50: MCF-7, ER degradation, read-out: MCF7 DC50
Sequence of ER in MCF-7 cells (P03372 whole entry): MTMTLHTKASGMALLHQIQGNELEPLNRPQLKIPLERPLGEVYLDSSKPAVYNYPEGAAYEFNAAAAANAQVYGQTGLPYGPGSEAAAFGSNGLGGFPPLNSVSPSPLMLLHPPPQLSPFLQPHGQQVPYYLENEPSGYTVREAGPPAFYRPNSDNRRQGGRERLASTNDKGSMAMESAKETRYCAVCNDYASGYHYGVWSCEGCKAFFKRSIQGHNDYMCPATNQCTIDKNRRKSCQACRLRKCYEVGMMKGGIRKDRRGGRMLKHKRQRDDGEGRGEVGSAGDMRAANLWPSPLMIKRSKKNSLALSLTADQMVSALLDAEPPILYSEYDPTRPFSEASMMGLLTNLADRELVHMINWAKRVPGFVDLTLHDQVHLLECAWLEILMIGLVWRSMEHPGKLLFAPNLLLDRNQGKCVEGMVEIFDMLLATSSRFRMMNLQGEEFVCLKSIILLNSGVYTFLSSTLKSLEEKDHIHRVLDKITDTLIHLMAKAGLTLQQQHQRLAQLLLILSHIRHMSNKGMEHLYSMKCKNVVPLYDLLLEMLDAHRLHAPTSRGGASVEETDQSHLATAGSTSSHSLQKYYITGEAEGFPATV
Description: (§1) In-cell Western (ICW) assays in MCF-7 and T47D cell lines.
(§2) Day 3: After 16 hrs of compounds treatment, cells were fixed by 4% PFA and permeabilized with elution buffer (0.1% Triton X-100 in 1% PBS Solution). Subsequently, cells were blocked with Intercept (PBS) Blocking Buffer (Li-COR, Odyssey Blocking Buffer), and were stained with ER (1:500, Cell signaling) primary antibody for overnight at cold room.
(§3) Day 4: Remove the buffer, add IRDye 800CW Goat anti-Rabbit IgG Secondary Antibody (1:2000) and CellTag 700 Stain (1:500) in Intercept (PBS) Blocking Buffer. Finally, cell plate is placed in incubator to dry. Image and signal were captured on Odyssey® DLx Imaging System.

ER in T47D cells = ER in T47D cells (Homo sapiens (Human), UniProt P03372); test: In-cell Western (ICW) ER degradation assay in T47D cells; conditions: for DC50: ER degradation
Sequence of ER in T47D cells (P03372 whole entry): as above
Description: as §1, §2, §3

[2] = MCF7, MCF-7, maximal ER degradation, 16 hrs treatment, read-out: MCF7 Dmax
[3] = maximal ER degradation, 16 hrs treatment, read-out: T47D Dmax

Structure (SMILES): O=C1CCC(N2Cc3cc4c(cc3C2=O)CN(C(=O)C2CCC(N3CC(Oc5ccc([C@@H]6c7ccc(O)cc7CC[C@@H]6c6ccccc6)cc5)C3)CC2)C4)C(=O)N1 (stereo partly drawn) [Compound B107, 3-(6-((1S,4s)-4-(3-(4-((1R,2S)-6-hydroxy-2-phenyl-1,2,3,4-tetrahydronaphthalen-1-yl)phenoxy)azetidin-1-yl)cyclohexane-1-carbonyl)-1-oxo-3,5,6,7-tetrahydropyrrolo[3,4-f]isoindol-2(1H)-yl)piperidine-2,6-dione]
DC50 [1]: > 100 nM

Structure (SMILES): O=C1CCC(N2C(=O)c3cc4c(cc3C2=O)CN(C(=O)CN2CCC3(CC2)CC(Oc2ccc([C@@H]5c6ccc(O)cc6CC[C@@H]5c5ccccc5)cc2)C3)C4)C(=O)N1 (stereo partly drawn) [Compound B277, 2-(2,6-dioxopiperidin-3-yl)-6-(2-(2-(4-((1R,2S)-6-hydroxy-2-phenyl-1,2,3,4-tetrahydronaphthalen-1-yl)phenoxy)-7-azaspiro[3.5]nonan-7-yl)acetyl)-6,7-dihydropyrrolo[3,4-f]isoindole-1,3(2H,5H)-dione]
DC50 [1]: > 100 nM

Structure (SMILES): O=C1CCC(N2C(=O)c3cc4c(cc3C2=O)CCN(CC(=O)N2CCC3(CC2)CCN(c2ccc([C@@H]5c6ccc(O)cc6CC[C@@H]5c5ccccc5)cc2)CC3)CC4)C(=O)N1 (stereo partly drawn) [Compound B39, 2-(2,6-dioxopiperidin-3-yl)-7-(2-(9-(4-((1R,2S)-6-hydroxy-2-phenyl-1,2,3,4-tetrahydronaphthalen-1-yl)phenyl)-3,9-diazaspiro[5.5]undecan-3-yl)-2-oxoethyl)-6,7,8,9-tetrahydroazepino[4,5-f]isoindole-1,3(2H,5H)-dione]
DC50 [1]: > 100 nM

Structure (SMILES): O=C1CCC(N2Cc3cc4c(cc3C2=O)CN(C2CCN(CC3CCN(c5ccc([C@@H]6c7ccc(O)cc7CC[C@@H]6c6ccccc6)cc5)CC3)CC2)C4=O)C(=O)N1 (stereo partly drawn) [Compound B303, 2-(2,6-dioxopiperidin-3-yl)-6-(1-((1-(4-((1R,2S)-6-hydroxy-2-phenyl-1,2,3,4-tetrahydronaphthalen-1-yl)phenyl)piperidin-4-yl)methyl)piperidin-4-yl)-2,3,6,7-tetrahydropyrrolo[3,4-f]isoindole-1,5-dione]
DC50 [1]: > 100 nM

Structure (SMILES): COc1cc(N2CCC(CN3CCC(c4ccc(N[C@@H]5CCC(=O)NC5=O)cc4F)CC3)CC2)ccc1[C@@H]1c2ccc(O)cc2CC[C@@H]1c1ccccc1 (single isomer, unassigned) [Compound A85]
Dmax (ER in MCF-7 cells; [2]): 25 to 50% | DC50 (ER in MCF-7 cells; 16 hrs treatment): < 1 nM | DC50 (ER in T47D cells; 16 hrs treatment): < 1 nM | Dmax (ER in T47D cells; [3]): 50 to 75%

Structure (SMILES): COc1cc(N2CCC3(CC2)CC(CN2CCC(c4ccc(N[C@@H]5CCC(=O)NC5=O)cc4)CC2)C3)ccc1[C@@H]1c2ccc(O)cc2CC[C@@H]1c1ccccc1 (single isomer, unassigned) [Compound A110]
Dmax (ER in MCF-7 cells; [2]): 50 to 75% | DC50 (ER in MCF-7 cells; 16 hrs treatment): < 1 nM | DC50 (ER in T47D cells; 16 hrs treatment): < 1 nM | Dmax (ER in T47D cells; [3]): 50 to 75%

Structure (SMILES): COc1cc(N2CCC(CN3CCC4(CC3)COc3cc5c(cc34)CN([C@H]3CCC(=O)NC3=O)C5=O)CC2)ccc1[C@H]1c2ccc(O)cc2CC[C@H]1c1ccccc1 [Compound A38, (R)-3-(1′-((1-(4-((1S,2S)-6-hydroxy-2-phenyl-1,2,3,4-tetrahydronaphthalen-1-yl)-3-methoxyphenyl)piperidin-4-yl)methyl)-7-oxo-5,7-dihydro-2H,6H-spiro[furo[2,3-f]iso-indole-3,4′-piperidin]-6-yl)-piperidine-2,6-dione formate]
Dmax (ER in MCF-7 cells; MCF7, read-out: MCF7 Dmax, MCF-7, maximal ER degradation, 16 hrs treatment): 25 to 50% | DC50 (ER in MCF-7 cells; 16 hrs treatment): 10 to 100 nM | DC50 (ER in T47D cells; 16 hrs treatment): 1 to 10 nM | Dmax (ER in T47D cells; read-out: T47D Dmax, T47D, maximal ER degradation, 16 hrs treatment): 25 to 50%

Second part, the compound after the results:

DC50 [1]: 10 to 100 nM
Structure (SMILES): O=C1CCC(N2C(=O)c3cc4c(cc3C2=O)CN(C(=O)[C@H]2CC[C@@H](N3CC(Oc5ccc([C@@H]6c7ccc(O)cc7CC[C@@H]6c6ccccc6)cc5)C3)CC2)C4)C(=O)N1 (stereo partly drawn) [Compound B126, 2-(2,6-dioxopiperidin-3-yl)-6-((1R,4s)-4-(3-(4-((1R,2S)-6-hydroxy-2-phenyl-1,2,3,4-tetrahydronaphthalen-1-yl)phenoxy)azetidin-1-yl)cyclohexane-1-carbonyl)-6,7-dihydropyrrolo[3,4-f]isoindole-1,3(2H,5H)-dione]

DC50 [1]: > 100 nM
Structure (SMILES): O=C1CCC(N2C(=O)c3cc4c(cc3C2=O)CN(Cc2ccc(N3CC(Nc5ccc([C@@H]6c7ccc(O)cc7CC[C@@H]6c6ccccc6)cc5)C3)nc2)C4)C(=O)N1 (stereo partly drawn) [Compound B117, 2-(2,6-dioxopiperidin-3-yl)-6-((6-(3-((4-((1R,2S)-6-hydroxy-2-phenyl-1,2,3,4-tetrahydronaphthalen-1-yl)phenyl)amino)azetidin-1-yl)pyridin-3-yl)methyl)-6,7-dihydropyrrolo[3,4-f]isoindole-1,3(2H,5H)-dione]

DC50 [1]: > 100 nM
Structure (SMILES): O=C1CCC(N2C(=O)c3cc4c(cc3C2=O)CN(CC2CCN(C(=O)C3CN(c5ccc([C@@H]6c7ccc(O)cc7CC[C@@H]6c6ccccc6)cc5)C3)CC2)C4)C(=O)N1 (stereo partly drawn) [Compound B264, 2-(2,6-dioxopiperidin-3-yl)-6-((1-(1-(4-((1R,2S)-6-hydroxy-2-phenyl-1,2,3,4-tetrahydronaphthalen-1-yl)phenyl)azetidine-3-carbonyl)piperidin-4-yl)methyl)-6,7-dihydropyrrolo[3,4-f]isoindole-1,3(2H,5H)-dione]

DC50 [1]: > 100 nM
Structure (SMILES): O=C1CCC(N2C(=O)c3cc4c(cc3C2=O)CN(CC(=O)N2CCC3(CC2)CCN(c2ccc([C@H]5c6ccc(O)cc6CC[C@H]5c5ccccc5)cn2)CC3)C4)C(=O)N1 (mixture of isomers) [Compound B81, 2-(2,6-dioxopiperidin-3-yl)-6-(2-(9-(5-((1R,2R)-6-hydroxy-2-phenyl-1,2,3,4-tetrahydronaphthalen-1-yl)pyridin-2-yl)-3,9-diazaspiro[5.5]undecan-3-yl)-2-oxoethyl)-6,7-dihydropyrrolo[3,4-f]isoindole-1,3(2H,5H)-dione]

DC50 [1]: > 100 nM
Structure (SMILES): O=C1CCC(N2C(=O)c3cc4c(cc3C2=O)CN(CC(=O)N2CCC(Oc3ccc([C@@H]5c6ccc(O)cc6CC[C@@H]5c5ccccc5)cc3)CC2)C4)C(=O)N1 (stereo partly drawn) [Compound B60, 2-(2,6-dioxopiperidin-3-yl)-6-(2-(4-(4-((1R,2S)-6-hydroxy-2-phenyl-1,2,3,4-tetrahydronaphthalen-1-yl)phenoxy)piperidin-1-yl)-2-oxoethyl)-6,7-dihydropyrrolo[3,4-f]isoindole-1,3(2H,5H)-dione]

DC50 [1]: > 100 nM
Structure (SMILES): O=C1CCC(N2C(=O)c3cc4c(cc3C2=O)CN(C2CCC(NC3CCN(c5ccc([C@@H]6c7ccc(O)cc7CC[C@@H]6c6ccccc6)cc5)CC3)CC2)C4)C(=O)N1 (stereo partly drawn) [Compound B84, 2-(2,6-dioxopiperidin-3-yl)-6-(4-((1-(4-((1R,2S)-6-hydroxy-2-phenyl-1,2,3,4-tetrahydronaphthalen-1-yl)phenyl)piperidin-4-yl)amino)cyclohexyl)-6,7-dihydropyrrolo[3,4-f]isoindole-1,3(2H,5H)-dione]

DC50 [1]: > 100 nM
Structure (SMILES): O=C1CCC(N2C(=O)c3cc4c(cc3C2=O)CN(CC2CN(CC3CN(c5ccc([C@@H]6c7ccc(O)cc7CC[C@@H]6c6ccc(F)cc6)cc5)C3)C2)C4)C(=O)N1 (stereo partly drawn) [Compound B71, 2-(2,6-dioxopiperidin-3-yl)-6-((1-((1-(4-((1R,2S)-2-(4-fluorophenyl)-6-hydroxy-1,2,3,4-tetrahydronaphthalen-1-yl)phenyl)azetidin-3-yl)methyl)azetidin-3-yl)methyl)-6,7-dihydropyrrolo[3,4-f]isoindole-1,3(2H,5H)-dione]
